Source: patent US10500224B2, “Mutual prodrug comprising short chain fatty acids and zebularine or 1'-cyano-cytarabine for cancer treatment” (KAINOS MEDICINE, INC., priority 2013, dated 2019)

How the values were obtained:
[1] = test system: HCT 116 (human colorectal carcinoma); assay: Anti-proliferative activity test (CellTiter-Glo), HCT 116; assay type: cell-based; conditions: HCT 116, colon cancer
Experimental: (§1) Six hundred cells in 90 media were plated per well in duplicates in a 96-well plate. Cells were incubated in a humidified incubator at 37° C. with 5% CO2 during the assay. DMSO was added to the test compounds with the final DMSO concentration being 0.1% [v/v] of the culture. 100 μl of CellTiter-Glo® was added to the equal volume of cultured cells to read luminescence in EnVision Multi Label Reader.

[2] = test system: Hep G2 (human hepatocellular carcinoma); assay: Anti-proliferative activity test (CellTiter-Glo), Hep G2; assay type: cell-based; conditions: Hep G2, liver cancer
Experimental: as §1

[3] = test system: HL-60 (human acute promyelocytic leukemia); assay: Anti-proliferative activity test (CellTiter-Glo), HL-60; assay type: cell-based; conditions: HL-60, hematological
Experimental: as §1

[4] = test system: MOLT-4 (human acute lymphoblastic leukemia); assay: Anti-proliferative activity test (CellTiter-Glo), MOLT-4; assay type: cell-based; conditions: MOLT-4, hematological
Experimental: as §1

[5] = test system: HL-60 human leukemia xenograft; assay: Tumor growth inhibition of IP-administered Compound 12 in HL-60 human leukemia xenograft; assay type: in vivo, NOD/SCID female mice
Experimental: Tumor growth inhibition activities of IP-administered Ara-C and Compound 12 were compared in HL-60 human leukemia xenograft.
NOD/SCID female mice of 6-8 weeks age and weighing approximately 18 to 22 g, were used for tumor inoculation. Each mouse was inoculated subcutaneously at the right flank with HL-60 tumor cells (1×10^7 cells) in mixture of 100 μl of PBS and 100 of μl Matrigel™ for tumor development. Eight mice were used for each group (n=8/group). The amounts of treated compounds are represented in milligram (mg) of compound per kilogram (kg) of animal body weight (mg/kg, mpk). Administration route of all test compounds was through IP injection. […] The overall administration schedule was 2 cycles of compound treatment for 5 days, followed by 2 days of non-treatment. Tumor sizes were measured using a caliper, once every 4 days, and the tumor volume was expressed in mm^3 using Equation 1.
The tumor volume (mm^3) and body weight (g) results of five groups are shown in FIGS. 5A and 5B, respectively.

[6] = test system: MV-4-11 (human biphenotypic B myelomonocytic leukemia); assay: Anti-proliferative activity test (CellTiter-Glo), MV-4-11; assay type: cell-based; conditions: MV-4-11, hematological
Experimental: as §1

[7] = test system: HL-60 human leukemia xenograft; assay: Efficacy of PO-administered Compound 12 in HL-60 human leukemia xenograft; assay type: in vivo, NOD/SCID female mice; conditions: 5 d ON/2 d Off × 2
Experimental: Tumor growth inhibition (TGI) activities of IP-administered Ara-C, and PO-administered Compound 12 were compared in HL-60 human leukemia xenografts.
NOD/SCID female mice of 6-8 weeks age and weighing approximately 18 to 22 g, were used for tumor inoculation. Each mouse was inoculated subcutaneously at the right flank with HL-60 cancer cells (1×10^7 cells) in mixture of 100 μl of PBS and 100 μl of Matrigel™ for tumor development. Eight mice were used for each group (n=8/group). The amounts of treated compounds are represented in milligram (mg) of compound per kilogram (kg) of animal body weight (mg/kg, mpk). Administration route of the test compound was either intraperitoneal (IP) injection or peros (PO, oral) injection. […] The overall administration schedule was 2 cycles of treatment for 5 days (5 d ON), followed by 2 days of non-treatment (2 d OFF). Tumor sizes were measured using a caliper, once every 4 days, and the tumor volume was expressed in mm^3 using Equation 1: V=0.5a×b^2 [Equation 1]
Wherein, a and b are the long and short diameters of the tumor, respectively.
The tumor volume (mm^3) and body weight (g) results of the three groups are shown in FIGS. 4A and 4B, respectively.

[8] = target: T1, recombinant human cytidine deaminase (CDA) (Homo sapiens, UniProt P32320); assay: Cytidine deaminase (CDA) assay; assay type: biochemical
T1 construct: His6; host or cells: E. coli
T1 sequence (P32320 whole entry): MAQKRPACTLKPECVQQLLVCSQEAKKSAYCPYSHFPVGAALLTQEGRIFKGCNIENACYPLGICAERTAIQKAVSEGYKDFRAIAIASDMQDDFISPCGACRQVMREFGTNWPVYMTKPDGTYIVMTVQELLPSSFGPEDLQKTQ

[9] = Rat pharmacokinetics of Compound 12; assay type: in vivo, SD rats; conditions: SD, plasma, 10 mg/kg
Experimental: (§2) Pharmacokinetics of Compound 12 prepared in Example 1 were evaluated in ICR mice and SD rats following intravenous (IV) administration at 10 mg/kg and peroral (PO) administration at 10 mg/kg dose level, respectively.
(§3) For serum compound analysis, blood samples were collected by cardiac puncture over 24 hr time course. 20 μl of spiked plasma was added into 96 well plate, adding ten volumes of internal standard (IS) in acetonitrile (ACN) to precipitate proteins, mixed fully, centrifuged for 10 min at 4,000 rpm. 150 μl of supernatant was transferred to another pre-labeled 96 well plate, mixed with 150 μl of water, then injected 5 μl or 10 μl into the liquid chromatography-mass spectrometry (LC-MS) system under the following conditions:
(§4) Column: API-4000+Waters UPLC (TCLM08);
(§5) Lower limit of quantification (LLOQ) was at 1 ng/mL. Pharmacokinetic parameters of half-life (T1/2), clearance (CL), maximum plasma concentration (Cmax), time when the maximal serum concentration of compound is achieved (Tmax) and bioavailability (F %), exposure (AUC) and volume of distribution (Vss) of the compound were calculated using Phoenix WinNonlin 6.3 (non-compartmental model).

[10] = Mouse pharmacokinetics of Compound 12; assay type: in vivo, ICR mice; conditions: ICR, plasma, 10 mg/kg
Experimental: as §2, §3, §4, §5

MOLT-4 xenograft = assay: Tumor growth inhibition of Compounds 22 and 23 in MOLT-4 xenograft; assay type: in vivo, mice
[11] = Pharmacokinetics of Compounds 16, 22 and 23; assay type: in vivo, SCID/mice; conditions: SCID, mouse, plasma
Experimental: Pharmacokinetics of Compound 16 (Comparative example) prepared in step 3 of Example 2, and mutual prodrugs of Compounds 22 and 23 prepared in Example 3 and 4, respectively, were evaluated in SCID/mice following oral (PO) and intravenous (IV) administration according to the route/dose as shown in Table 4.
Blood samples were collected over 24 hrs, and plasma samples were prepared. Plasma concentrations of the test compounds were analyzed by LC/MS/MS. The maximum plasma concentration (Cmax), exposure (AUC), bioavailability (F %), half-life (T1/2), clearance (CL), volume of distribution (Vss), time when the maximal serum concentration of compound is achieved (Tmax) and mean residence time (MRT) were calculated as were in Test Example 3.

[12] = 150 mpk, 5 d ON/2 d OFF × 2, FIG. 6

Row | Compound | IC50 ([1]; Homo sapiens) [µM] | IC50 ([2]; Homo sapiens, HepG2) [µM] | IC50 ([3]; Homo sapiens) [µM] | IC50 ([4]; Homo sapiens) [µM] | TGI (%) ([5]; 60 mpk) | IC50 ([6]; Homo sapiens, MV4-11) [µM] | TGI (MOLT-4 xenograft; [12]) [%] | AUC ([11]; 75 mg/kg, PO/75 mpk) [ng·h/mL] | Cmax ([11]; 75 mg/kg, PO/75 mpk) [µM] | AUC ([11]; 150 mg/kg, PO/150 mpk) [ng·h/mL] | Cmax ([11]; 150 mg/kg, PO/150 mpk) [µM] | MRT ([11]; 150 mg/kg, PO/150 mpk) [h] | Tmax ([11]; 150 mg/kg, PO/150 mpk) [h] | bioavailability ([11]; 150 mg/kg, PO/150 mpk) [%] | half-life ([11]; 150 mg/kg, PO/150 mpk) [h] | other results
1 | Nc1ccn([C@@H]2O[C@H](CO)[C@@H](O)[C@@H]2O)c(=O)n1 [Ara-C, cytarabine] | 0.29 | 1.91 | 0.63 | 0.02 | 60 | 3.1 |  |  |  |  |  |  |  |  |  | % BW change ([7]; 40 mpk, IP): −6.2%; % TGI ([7]; 40 mpk, IP): 46%
2 | N#C[C@@]1(n2ccc(N)nc2=O)O[C@H](CO)[C@@H](O)[C@@H]1O [Compound 11] |  |  |  |  |  |  |  |  |  |  |  |  |  |  |  | IC50 [1]: 0.96 µM; IC50 [2]: 6 µM; IC50 [3]: 2.41 µM; IC50 [4]: 1.06 µM; susceptibility to deamination by CDA [8]: resistant to deamination by CDA; Relative rxn velocity ([8]; 0.01 mM substrate, 25° C., OD282, relative to cytidine): <0.01; IC50 [6]: 5 µM
3 | CCCC(=O)OC[C@H]1O[C@@](C#N)(n2ccc(N)nc2=O)[C@@H](O)[C@@H]1O [Compound 12, ((2R,3S,4S,5R)-5-(4-amino-2-oxopyrimidin-1(2H)-yl)-5-cyano-3,4-dihydroxytetrahydrofuran-2-yl)methyl Butyrate] | 0.22 | 0.56 | 5.06 | 1.14 | 59 | 0.13 |  |  |  |  |  |  |  |  |  | TGI (%) ([5]; 20 mpk): 36%; TGI (%) ([5]; 40 mpk): 46%; clearance ([9]; IV): 11.4 mL/min/kg; half-life ([9]; IV): 3.1 h; bioavailability ([9]; PO): 48.8%; half-life ([9]; PO): 2.5 h; % BW change ([7]; 60 mpk, PO): −0.9%; % TGI ([7]; 60 mpk, PO): 50%; clearance ([10]; IV): 21.6 mL/min/kg; half-life ([10]; IV): 3.1 h; bioavailability ([10]; PO): 62%; half-life ([10]; PO): 4.6 h
4 | O=c1ncccn1[C@@H]1O[C@H](CO)[C@@H](O)[C@H]1O [Compound 16, 1-((2R,3R,4S,5R)-3,4-dihydroxy-5-(hydroxymethyl)tetrahydrofuran-2-yl)pyrimidin-2(1H)-one, reference compound] |  |  |  |  |  |  |  |  |  |  |  |  |  |  |  | TGI (MOLT-4 xenograft; zebularine, dose not stated, FIG. 6): 10%; AUC ([11]; 100 mg/kg, IV/100 mpk): 54600 ng·h/mL; clearance ([11]; 100 mg/kg, IV/100 mpk): 30.2 mL/min/kg; half-life ([11]; 100 mg/kg, IV/100 mpk): 2.03 h; Vd ([11]; 100 mg/kg, IV/100 mpk, read-out: Vss): 0.91 L/kg; AUC ([11]; 500 mg/kg, PO/500 mpk): 20900 ng·h/mL; Cmax ([11]; 500 mg/kg, PO/500 mpk): 22.3 µM; bioavailability ([11]; 500 mg/kg, PO/500 mpk): 8.4%; half-life ([11]; 500 mg/kg, PO/500 mpk): 2.44 h
5 | CCCC(=O)OC[C@H]1O[C@@H](n2cccnc2=O)[C@H](OC(=O)CCC)[C@@H]1OC(=O)CCC [Compound 22, (2R,3R,4R,5R)-2-((butyryloxy)methyl)-5-(2-oxopyrimidin-1(2H)-yl)tetrahydrofuran-3,4-diyl Dibutyrate] |  |  |  |  |  |  | 40 | 500 | 0.88 | 1100 | 4.4 | 1.2 | 0.5 | 2.7 | 1.6 | 
6 | CC(C)C(=O)OC[C@H]1O[C@@H](n2cccnc2=O)[C@H](OC(=O)C(C)C)[C@@H]1OC(=O)C(C)C [Compound 23, (2R,3R,4R,5R)-2-((isobutyryloxy)methyl)-5-(2-oxopyrimidin-1(2H)-yl)tetrahydrofuran-3,4-diyl bis(2-methylpropanoate)] |  |  |  |  |  |  | 40 | 1800 | 5.3 | 6500 | 30.7 | 1.3 | 0.5 | 16 | 4.9 | 
